From patent US10668067B2, “Pyridine sulfonamides” (AMGEN INC., priority 2016, dated 2020) come the findings set out here.

Molecules are shown by their SMILES. pIC50: −log10 of the molar value.

Chain of human Nav1.7 (Q15858 whole entry): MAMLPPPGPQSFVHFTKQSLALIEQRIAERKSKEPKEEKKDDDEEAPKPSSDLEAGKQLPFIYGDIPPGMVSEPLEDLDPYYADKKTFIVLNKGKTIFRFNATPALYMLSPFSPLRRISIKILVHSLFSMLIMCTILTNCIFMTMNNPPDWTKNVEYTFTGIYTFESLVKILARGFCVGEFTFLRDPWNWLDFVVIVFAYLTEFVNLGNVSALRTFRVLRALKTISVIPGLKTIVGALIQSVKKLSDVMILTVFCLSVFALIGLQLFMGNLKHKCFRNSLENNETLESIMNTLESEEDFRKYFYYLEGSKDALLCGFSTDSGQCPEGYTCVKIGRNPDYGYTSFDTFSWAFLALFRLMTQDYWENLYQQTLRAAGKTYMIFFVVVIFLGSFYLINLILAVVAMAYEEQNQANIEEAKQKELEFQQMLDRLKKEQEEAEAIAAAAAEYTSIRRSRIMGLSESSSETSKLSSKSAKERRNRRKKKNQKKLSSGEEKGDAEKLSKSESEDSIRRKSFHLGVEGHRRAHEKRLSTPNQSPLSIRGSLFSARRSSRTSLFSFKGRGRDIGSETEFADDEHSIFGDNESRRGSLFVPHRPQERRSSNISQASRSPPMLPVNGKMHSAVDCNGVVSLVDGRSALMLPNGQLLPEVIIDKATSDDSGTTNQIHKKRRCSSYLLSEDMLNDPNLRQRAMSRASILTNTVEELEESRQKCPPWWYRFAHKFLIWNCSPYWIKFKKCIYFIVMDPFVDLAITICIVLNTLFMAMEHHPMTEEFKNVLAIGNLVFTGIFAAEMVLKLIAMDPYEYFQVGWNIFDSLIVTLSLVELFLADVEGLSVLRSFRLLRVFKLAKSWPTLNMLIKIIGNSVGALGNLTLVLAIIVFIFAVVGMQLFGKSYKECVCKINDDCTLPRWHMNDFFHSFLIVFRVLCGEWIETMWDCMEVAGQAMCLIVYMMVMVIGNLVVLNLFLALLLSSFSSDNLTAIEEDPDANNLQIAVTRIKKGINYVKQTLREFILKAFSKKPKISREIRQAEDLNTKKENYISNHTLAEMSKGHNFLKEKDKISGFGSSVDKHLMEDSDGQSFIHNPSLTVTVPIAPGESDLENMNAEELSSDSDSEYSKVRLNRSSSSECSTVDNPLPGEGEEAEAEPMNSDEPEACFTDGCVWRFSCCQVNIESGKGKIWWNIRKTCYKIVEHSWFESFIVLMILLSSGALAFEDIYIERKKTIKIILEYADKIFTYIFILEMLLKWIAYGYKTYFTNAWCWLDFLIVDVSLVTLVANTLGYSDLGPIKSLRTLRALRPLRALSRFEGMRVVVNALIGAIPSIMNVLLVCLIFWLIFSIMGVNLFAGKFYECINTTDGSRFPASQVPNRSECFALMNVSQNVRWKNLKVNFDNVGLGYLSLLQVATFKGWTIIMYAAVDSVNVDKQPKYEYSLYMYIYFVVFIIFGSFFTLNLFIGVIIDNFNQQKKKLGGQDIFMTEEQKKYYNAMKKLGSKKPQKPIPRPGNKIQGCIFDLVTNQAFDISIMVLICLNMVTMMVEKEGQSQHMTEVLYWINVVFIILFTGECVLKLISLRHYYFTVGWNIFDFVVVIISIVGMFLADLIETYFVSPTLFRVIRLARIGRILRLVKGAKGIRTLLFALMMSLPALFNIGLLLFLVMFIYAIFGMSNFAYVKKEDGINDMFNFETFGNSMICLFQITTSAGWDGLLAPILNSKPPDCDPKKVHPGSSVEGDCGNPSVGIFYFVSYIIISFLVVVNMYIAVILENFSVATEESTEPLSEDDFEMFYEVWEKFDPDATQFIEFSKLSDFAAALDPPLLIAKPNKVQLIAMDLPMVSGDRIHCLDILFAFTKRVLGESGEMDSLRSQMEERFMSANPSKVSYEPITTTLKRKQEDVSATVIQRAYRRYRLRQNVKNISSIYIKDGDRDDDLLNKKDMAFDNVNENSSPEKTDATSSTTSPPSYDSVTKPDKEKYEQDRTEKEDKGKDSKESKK

The experiment deals with human Nav1.7 (Homo sapiens (Human), UniProt Q15858). In words: Nav 1.7 In Vitro PX Assay (PatchXpress whole cell voltage clamp). It counts as cell-based. Particulars: in-vitro Nav 1.7 PX data. How it is done:
HEK 293 cells stably transfected with human Nav1.7 were recorded in whole cell voltage clamp mode with the PatchXpress automated electrophysiology system (Molecular Devices, LLC, Sunnyvale, Calif.). Compound effects were measured on a partially inactivated state of the sodium channel. Cells were clamped to a holding potential yielding 20 to 50% inactivation. To elicit sodium current, channels were activated by pulsing to −10 mV for 20 msec. This voltage protocol was repeated at a rate of 0.1 Hz throughout the experiment. A single concentration of test compound was applied to cells for a duration of 3 minutes. Peak sodium current was measured at the end of the compound addition period to determine percent inhibition. Three to five cells were tested per concentration, and IC50 curves were fitted to percent inhibition as a function of concentration.
One may read the pIC50 as the negative decadic logarithm of the IC50, by convention in mol/L. `CNC(=O)N(c1ccc(S(=O)(=O)Nc2ccon2)cn1)c1cc(Cl)c(-c2cccc(C(F)(F)F)c2)cc1OC` [Example 1-31, 6-((2-chloro-5-methoxy-3′-(trifluoromethyl)-4-biphenylyl)(methylcarbamoyl)amino)-N-3-isoxazolyl-3-pyridinesulfonamide] had a pIC50 of 7.80.
`CNC(=O)N(c1ccc(S(=O)(=O)Nc2ccon2)cn1)c1cc(Cl)c(-c2cc(Cl)cc(OC)c2)cc1OC` [Example 1-32, 6-((2,3′-dichloro-5,5′-dimethoxy-4-biphenylyl)(methylcarbamoyl)amino)-N-3-isoxazolyl-3-pyridinesulfonamide] gave a pIC50 of 7.85. This pIC50 and that of the compound before are within 0.2 log units of each other.
On to `CNC(=O)N(c1ccc(S(=O)(=O)Nc2ccon2)cn1)c1cc(Cl)c(-c2ccc(Cl)c(OC)c2)cc1OC` [Example 1-33, 6-((2,4′-dichloro-3′,5-dimethoxy-4-biphenylyl)(methylcarbamoyl)amino)-N-3-isoxazolyl-3-pyridinesulfonamide], for which the pIC50 was 7.37.
For `CNC(=O)N(c1ccc(S(=O)(=O)Nc2ccon2)cn1)c1cc(Cl)c(-c2cc(Cl)ccc2C)cc1OC` [Example 1-34, 6-((2,5′-dichloro-5-methoxy-2′-methyl-4-biphenylyl)(methylcarbamoyl)amino)-N-3-isoxazolyl-3-pyridinesulfonamide] the value was 7.57.
For `CNC(=O)N(c1ccc(S(=O)(=O)Nc2ccon2)cn1)c1cc(F)c(-c2ccc(Cl)c(OC)c2)cc1OC` [Example 1-35, 6-((4′-chloro-2-fluoro-3′,5-dimethoxy-4-biphenylyl)(methylcarbamoyl)amino)-N-3-isoxazolyl-3-pyridinesulfonamide] the value was 6.73.
For `CNC(=O)N(c1ccc(S(=O)(=O)Nc2ccon2)cn1)c1cc(Cl)c(-c2cc(OC)cc(C(F)(F)F)c2)cc1OC` [Example 1-36, 6-((2-chloro-3′,5-dimethoxy-5′-(trifluoromethyl)-4-biphenylyl)(methylcarbamoyl)amino)-N-3-isoxazolyl-3-pyridinesulfonamide] the value was 7.96; for `CNC(=O)N(c1ccc(S(=O)(=O)Nc2ccon2)cn1)c1cc(Cl)c(-c2cccc(OCC(F)(F)F)c2)cc1OC` [Example 1-37, 6-((2-chloro-5-methoxy-3′-(2,2,2-trifluoroethoxy)-4-biphenylyl)(methylcarbamoyl)amino)-N-3-isoxazolyl-3-pyridinesulfonamide], 7.96; for `CNC(=O)N(c1ccc(S(=O)(=O)Nc2ccon2)cn1)c1cc(Cl)c(-c2cccc(C3CC3)c2)cc1OC` [Example 1-38, 6-((2-chloro-3′-cyclopropyl-5-methoxy-4-biphenylyl)(methylcarbamoyl)amino)-N-3-isoxazolyl-3-pyridinesulfonamide], 7.68.
Compound `CNC(=O)N(c1ccc(S(=O)(=O)Nc2ccon2)cn1)c1cc(Cl)c(-c2cccc(OC(F)(F)F)c2)cc1OC` [Example 1-39, 6-((2-chloro-5-methoxy-3′-(trifluoromethoxy)-4-biphenylyl)(methylcarbamoyl)amino)-N-3-isoxazolyl-3-pyridinesulfonamide] gave a pIC50 of 7.96.
As to `CNC(=O)N(c1ccc(S(=O)(=O)Nc2ccon2)cn1)c1cc(Cl)c(-c2cc(C(F)(F)F)cnc2OC)cc1OC` [Example 1-40, 6-((5-chloro-2-methoxy-4-(2-methoxy-5-(trifluoromethyl)-3-pyridinyl)phenyl)(methylcarbamoyl)amino)-N-3-isoxazolyl-3-pyridinesulfonamide], the pIC50 was 7.49.
Next, `CNC(=O)N(c1ccc(S(=O)(=O)Nc2ccon2)cn1)c1cc(Cl)c(-c2cc(Cl)cnc2OC)cc1OC` [Example 1-41, 6-((5-chloro-4-(5-chloro-2-methoxy-3-pyridinyl)-2-methoxyphenyl)(methylcarbamoyl)amino)-N-3-isoxazolyl-3-pyridinesulfonamide]: 6.78; `CNC(=O)N(c1ccc(S(=O)(=O)Nc2ccon2)cn1)c1cc(Cl)c(-c2cc(OC)nc(C(F)(F)F)c2)cc1OC` [Example 1-42, 6-((5-chloro-2-methoxy-4-(2-methoxy-6-(trifluoromethyl)-4-pyridinyl)phenyl)(methylcarbamoyl)amino)-N-3-isoxazolyl-3-pyridinesulfonamide]: 7.54; `CNC(=O)N(c1ccc(S(=O)(=O)Nc2ccon2)cn1)c1cc(Cl)c(-c2ccnc(C(F)(F)F)c2)cc1OC` [Example 1-43, 6-((5-chloro-2-methoxy-4-(2-(trifluoromethyl)-4-pyridinyl)phenyl)(methylcarbamoyl)amino)-N-3-isoxazolyl-3-pyridinesulfonamide]: 6.88.
Next, `CNC(=O)N(c1ccc(S(=O)(=O)Nc2ccon2)cn1)c1cc(Cl)c(-c2ccc(F)cc2)cc1OC` [Example 1-44, 6-((2-chloro-4′-fluoro-5-methoxy-4-biphenylyl)(methylcarbamoyl)amino)-N-3-isoxazolyl-3-pyridinesulfonamide]: 6.90.
`CNC(=O)N(c1ccc(S(=O)(=O)Nc2ccon2)cn1)c1cc(Cl)c(-c2ccc(C(F)(F)F)cc2)cc1OC` [Example 1-45, 6-((2-chloro-5-methoxy-4′-(trifluoromethyl)-4-biphenylyl)(methylcarbamoyl)amino)-N-3-isoxazolyl-3-pyridinesulfonamide]: the pIC50 is 7.19.
Next, `CNC(=O)N(c1ccc(S(=O)(=O)Nc2ccon2)cn1)c1cc(Cl)c(-c2ccc(C(F)(F)F)c(OC)c2)cc1OC` [Example 1-46, 6-((2-chloro-3′,5-dimethoxy-4′-(trifluoromethyl)-4-biphenylyl)(methylcarbamoyl)amino)-N-3-isoxazolyl-3-pyridinesulfonamide]: 7.34; `CNC(=O)N(c1ccc(S(=O)(=O)Nc2ccon2)cn1)c1cc(Cl)c(-c2cccc(OC(F)F)c2)cc1OC` [Example 1-47, 6-((2-chloro-3′-(difluoromethoxy)-5-methoxy-4-biphenylyl)(methylcarbamoyl)amino)-N-3-isoxazolyl-3-pyridinesulfonamide]: 7.14; `CNC(=O)N(c1ccc(S(=O)(=O)Nc2ccon2)cn1)c1cc(Cl)c(-c2cccc(OC(C)C)c2)cc1OC` [Example 1-48, 6-((2-chloro-5-methoxy-3′-(1-methylethoxy)-4-biphenylyl)(methylcarbamoyl)amino)-N-3-isoxazolyl-3-pyridinesulfonamide]: 7.15.
For `CNC(=O)N(c1ccc(S(=O)(=O)Nc2ccon2)cn1)c1cc(Cl)c(-c2cc(F)cc(C(F)(F)F)c2)cc1OC` [Example 1-49, 6-((2-chloro-3′-fluoro-5-methoxy-5′-(trifluoromethyl)-4-biphenylyl)(methylcarbamoyl)amino)-N-3-isoxazolyl-3-pyridinesulfonamide] the value was 7.55; for `CNC(=O)N(c1ccc(S(=O)(=O)Nc2ccon2)cn1)c1cc(Cl)c(-c2cc(C)c(F)c(OC)c2)cc1OC` [Example 1-50, 6-((2-chloro-4′-fluoro-3′,5-dimethoxy-5′-methyl-4-biphenylyl)(methylcarbamoyl)amino)-N-3-isoxazolyl-3-pyridinesulfonamide], 7.31.
The compound `CNC(=O)N(c1ccc(S(=O)(=O)Nc2ccon2)cn1)c1cc(Cl)c(-c2cc(OC)cc(OC(F)(F)F)c2)cc1OC` [Example 1-51, 6-((2-chloro-3′,5-dimethoxy-5′-(trifluoromethoxy)-4-biphenylyl)(methylcarbamoyl)amino)-N-3-isoxazolyl-3-pyridinesulfonamide] showed a pIC50 of 8.05.
For `CNC(=O)N(c1ccc(S(=O)(=O)Nc2ccon2)cn1)c1cc(Cl)c(-c2cc(F)c(F)c(F)c2)cc1OC` [Example 1-52, 6-((2-chloro-3′,4′,5′-trifluoro-5-methoxy-4-biphenylyl)(methylcarbamoyl)amino)-N-3-isoxazolyl-3-pyridinesulfonamide] the value was 7.51; for `CNC(=O)N(c1ccc(S(=O)(=O)Nc2ccon2)cn1)c1cc(Cl)c(-c2cc(Cl)cc(C#N)c2)cc1OC` [Example 1-53, 6-((2,3′-dichloro-5′-cyano-5-methoxy-4-biphenylyl)(methylcarbamoyl)amino)-N-3-isoxazolyl-3-pyridinesulfonamide], 7.32.
Compound `CNC(=O)N(c1ccc(S(=O)(=O)Nc2ccon2)cn1)c1cc(Cl)c(-c2ccc(Cl)c(C#N)c2)cc1OC` [Example 1-54, 6-((2,4′-dichloro-3′-cyano-5-methoxy-4-biphenylyl)(methylcarbamoyl)amino)-N-3-isoxazolyl-3-pyridinesulfonamide] gave a pIC50 of 7.28. The pIC50 values of the last two compounds are within 0.2 log units of each other.
For `CNC(=O)N(c1ccc(S(=O)(=O)Nc2ccon2)cn1)c1cc(Cl)c(-c2cc(C(F)(F)F)ccc2F)cc1OC` [Example 1-55, 6-((2-chloro-2′-fluoro-5-methoxy-5′-(trifluoromethyl)-4-biphenylyl)(methylcarbamoyl)amino)-N-3-isoxazolyl-3-pyridinesulfonamide] the value was 7.77.
As to `CNC(=O)N(c1ccc(S(=O)(=O)Nc2ccon2)cn1)c1cc(Cl)c(-c2cc(OC(F)(F)F)ccc2OC)cc1OC` [Example 1-56, 6-((2-chloro-2′,5-dimethoxy-5′-(trifluoromethoxy)-4-biphenylyl)(methylcarbamoyl)amino)-N-3-isoxazolyl-3-pyridinesulfonamide], the pIC50 was 7.72.
Next, `CNC(=O)N(c1ccc(S(=O)(=O)Nc2ccon2)cn1)c1cc(Cl)c(-c2ccc(F)c(OCC(F)(F)F)c2)cc1OC` [Example 1-57, 6-((2-chloro-4′-fluoro-5-methoxy-3′-(2,2,2-trifluoroethoxy)-4-biphenylyl)(methylcarbamoyl)amino)-N-3-isoxazolyl-3-pyridinesulfonamide]: 7.62; `CNC(=O)N(c1ccc(S(=O)(=O)Nc2ccon2)cn1)c1cc(Cl)c(C2CC2)cc1OC` [Example 1-59, 6-((5-chloro-4-cyclopropyl-2-methoxyphenyl)(methylcarbamoyl)amino)-N-3-isoxazolyl-3-pyridinesulfonamide]: 5.52.
